Among the data in a melting point compilation (Tetko et al.) are melting point values, retold here.

Structures are written as SMILES.

`Cc1cc(N)cc(C)n1` returned a melting point of 192 °C.

Consider `Brc1ccc(Br)nn1`, for which the melting point is 116 to 117 °C.

`CC1CCCCC1C` (stereo not given) displayed a melting point of -49.9 °C.

`CCCCCCCCNC(C)C(O)c1ccc(SC(C)C)cc1` (stereo not given) returned a melting point of 62.5 °C.

`C=CCNC(=S)NNC(=O)C(=O)c1c[nH]c2ccccc12` registered a melting point of 229 °C.

The compound `C=C1C(C)CCC2(C)C3=C(C(=O)C4(CC4C)C(O)C3=O)C(OC(C)=O)C(O)C12` (stereo not given) showed a melting point of 195 to 196 °C.

`O=C(O)c1cc(F)c(Cl)cc1F`: the melting point is 153 to 158 °C.

In turn, `Cc1cc(C)nc(S)n1` registered a melting point of 213 to 217 °C.

In the case of `CN(N)c1ccc(Cl)cc1[N+](=O)[O-]`, the melting point came out at 91 °C.

Compound `CCCCC(CC)CC` showed a melting point of -115 °C.

`CCCCCC(=NO)C(C)=O`: the melting point was 59 °C.

Compound `COc1cc(OC)nc(NC(=O)NS(=O)(=O)Nc2ccccc2C(=O)C2CC2)n1` gave a melting point of 162 °C.

`O=Cc1cc([N+](=O)[O-])cc(Br)c1O` gave a melting point of 149 °C.

In the case of `O=C(O)COc1ccc(OCC(=O)O)cc1`, the melting point lay within 248 to 251 °C.

The compound `Cc1ccc(C(=O)C2=NOC3C(=O)N(c4ccc(C(=O)O)cc4)C(=O)C23)cc1` (stereo not given) registered a melting point of 201 °C.

As to `CC(C)(C)OC(=O)N1CCN(Cc2ccc(CO)cc2)CC1`, the melting point was 52 to 53 °C.

`O=c1cc(-c2ccccc2)oc2ccc(Cl)cc12` returned a melting point of 183 to 187 °C.

`CCCCOCCOCCOCCO`: the melting point was -30 °C.

With `CC1=CC(=O)CC(=O)O1`, the melting point came to 188 °C.

On to `CC(=NO)c1ccc(Cl)cc1Cl`, for which the melting point was 148 to 151 °C.

With `O=C(CO)CO`, the melting point stood at 90 °C.

`CC1CC(=O)c2c(F)c(F)cc3c(=O)c(C(=O)O)cn1c23` (stereo not given) yielded a melting point of 323 to 325 °C.

The compound `O=C(Oc1c(F)c(F)c(F)c(F)c1F)c1csc(-c2cccnc2)n1` showed a melting point of 136 to 137 °C.

In turn, `CC(O)CCc1ccc(CCC(C)O)cc1` (stereo not given) displayed a melting point of 42 to 46 °C.

In turn, `[O-][P+](O)(O)CCN(CP(c1ccccc1)c1ccccc1)CP(c1ccccc1)c1ccccc1` displayed a melting point of 147 °C.

`Oc1cc(F)cc(F)c1F` displayed a melting point of 29 °C.

In turn, `CC(=O)CCc1oc2ccc(I)cc2c1-c1ccc(C)o1` displayed a melting point of 94 °C.

On to `S=C(c1ccc2c(c1)OCO2)N1CCOCC1`, for which the melting point stood at 154 °C.

`C=CCCCCCCCCC` gave a melting point of -49.2 °C.

Take `O=S1(=O)OC2(c3ccccc31)c1ccc(O)c(O)c1Oc1c2ccc(O)c1O`: the melting point came to 300 °C.

For the compound `Clc1ccc(-c2cc3ccccc3[nH]2)cc1`, the melting point was 206 °C.

As for `CCOC(=O)c1c(NC(=O)CN2CCCCC2)sc2c1CCCC2`, the melting point was in the range of 100 to 101 °C.

In turn, `CC(C)(C)C(O)C(Cc1ccc(Cl)cc1)n1cncn1` (stereo not given) yielded a melting point of 166 °C.

The compound `O=[N+]([O-])c1ccc2nc(C(Cl)(Cl)Cl)[nH]c2c1` had a melting point of 210 to 212 °C.

`CCOC(=O)c1[nH]c(C)c(C(C)=O)c1C` showed a melting point of 146 to 147 °C.

Compound `COc1ccc(C(c2c(O)cc(C)oc2=O)c2c(O)cc(C)oc2=O)cc1` registered a melting point of 163 to 165 °C.

In turn, `O=C(Nc1ccc(Br)cc1Br)C(C(F)(F)F)(C(F)(F)F)C(F)(F)F` showed a melting point of 228 to 230 °C.

In turn, `FC(F)(F)c1cc(P(c2cc(C(F)(F)F)cc(C(F)(F)F)c2)c2cc(C(F)(F)F)cc(C(F)(F)F)c2)cc(C(F)(F)F)c1` displayed a melting point of 100 °C.

`Cc1ccc(C(=O)C(=O)c2ccc(Cl)cc2)cc1` had a melting point of 123 to 124 °C.

`CC(C)(C)c1ccc(-c2cc(N)c(C(N)=O)s2)cc1`: the melting point was in the range of 244 to 248 °C.

For the compound `COc1ccc(-c2ccc(S(=O)(=O)NCCC(=O)O)cc2)cc1`, the melting point is 190 °C.

`CCOC(=O)C(C)(C)C1(c2ccc(OC)cc2)CCC(=O)O1` (stereo not given) yielded a melting point of 59 °C.

Compound `C=CC[C@H](N)C(=O)O` gave a melting point of 253 to 255 °C.

In the case of `CCO/C=N/c1c(C(=O)OCC)sc2sc(C(=O)OCC)c(/N=C/OCC)c12`, the melting point turned out to be 267 °C.

As to `COc1ccc(P(c2ccc(OC)cc2)c2ccc(OC)cc2)cc1`, the melting point lay in the range of 131 to 134 °C.

`Brc1cncc(-c2nnn[nH]2)c1` came in with a melting point of 226 °C.

`Cc1cc(C(N)=O)ccc1Br` had a melting point of 180 °C.

`CCCCc1ccc(/N=N/c2ccc(OCCC)cc2)cc1` gave a melting point of 66 to 68 °C.

`O=C1C=C(NCc2ccncc2)C(=O)c2ccccc21` gave a melting point of 166 °C.

The compound `O=C1C(C(O)c2ccccc2)C(C(F)(F)F)=NN1c1ccccc1` (stereo not given) came in with a melting point of 258 °C.

In turn, `C#Cc1ccc(F)cc1` came in with a melting point of 28 °C.

As to `COC1N(c2ccccc2)N=C(c2ccccc2)N1c1ccccc1` (stereo not given), the melting point was 80 °C.

Turning to `C=CN1C(=O)c2ccccc2C1=O`, the melting point was found to be 86 °C.

Regarding `O=C(Nc1cccc([N+](=O)[O-])c1)C(C(F)(F)F)C(F)(F)F`, the melting point stood at 200 °C.

For the compound `CC(C)(C)N(NC(=O)c1ccccc1)C(=O)c1c(Cl)cccc1Cl`, the melting point worked out at 198 °C.

For the compound `C=CCOC(=O)N1CCN(C(=O)OCC2c3ccccc3-c3ccccc32)C(C(=O)O)C1` (stereo not given), the melting point was 63 °C.

In turn, `O=Cc1ccc(-c2cncc(C(=O)O)c2)cc1` gave a melting point of 231 to 234 °C.

`N#C/C(=N/Nc1cccc([N+](=O)[O-])c1)c1nc(-c2ccccc2)cs1` had a melting point of 215 °C.

`COc1ccc(C(=O)NCc2cccnc2)cc1C(=O)NCc1cccnc1`: the melting point worked out at 124 °C.

`CC(=O)NCc1c(I)c(NC(C)=O)c(I)c(C(=O)O)c1I` came in with a melting point of 255 °C.

`O=C1C(Cl)C(CCl)CN1c1cccc(C(F)(F)F)c1` (stereo not given) returned a melting point of 67.7 °C.

In turn, `Cc1cc(C)c(O)c(C(C)(C)C)c1` came in with a melting point of 22.3 °C.

On to `CCCCOC(=O)C1=C(C)NC(=O)NC1c1ccc2c(c1)OCO2` (stereo not given), for which the melting point turned out to be 143 °C.

Compound `Cc1onc(-c2c(F)cccc2Cl)c1C(=O)Cl` returned a melting point of 51 °C.

As for `C[C@@H](O)c1ccncc1`, the melting point was in the range of 68 to 70 °C.

`Brc1ccc2cccnc2c1` had a melting point of 34 °C.

Consider `O=C=Nc1ccc(Oc2ccc(N=C=O)cc2)cc1`, for which the melting point is 62 to 66 °C.

With `CC12CCC3C(C(=O)CC4CC(=O)CCC43C)C1CCC2=O` (stereo not given), the melting point was 229 to 234 °C.

Compound `BrCC12CC3CC(CC(C3)C1)C2` returned a melting point of 30 to 32 °C.

As to `CC(C)(C(=O)O)n1nc2ccccc2n1`, the melting point was determined as 152 °C.

For the compound `CC(C)C[C@@H](CC#N)NC(=O)OC(C)(C)C`, the melting point was in the range of 75 to 77 °C.

Regarding `CCC(C)C(C)(COC(N)=O)COC(N)=O` (stereo not given), the melting point amounted to 77 °C.

The compound `COc1c(Cl)c(Cl)c(Cl)c(Cl)c1Cl` displayed a melting point of 108 °C.

`O=C(O)c1cc([N+](=O)[O-])ccc1N1CCOCC1` returned a melting point of 166 to 172 °C.

The compound `NC(=O)C1CCNCC1` returned a melting point of 148 °C.
